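Compound exposure: 48 hours, 5 concentrations, 96-well plates. The concentration for 50% growth inhibition is given as GI50.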 Active and inactive are the calls of the source. Cut-off read from the data, not from the text of the source: active = GI50 up to about 1.1 µM and inactive = higher.
Key:
Assay in all cases: growth of human tumour cells (NCI), 48 h
TK-10 = test system: TK-10
CCRF-CEM = test system: CCRF-CEM
IGROV-1 = test system: IGROV-1
MDA-N = test system: MDA-N
786-0 = test system: 786-0
SF-539 = test system: SF-539
HOP-62 = test system: HOP-62
M14 = test system: M14
HCT-15 = test system: HCT-15
ACHN = test system: ACHN
T47D = test system: T47D
UACC-257 = test system: UACC-257
SK-MEL-5 = test system: SK-MEL-5
NCI/ADR-RES = test system: NCI/ADR-RES
MOLT-4 = test system: MOLT-4
DU-145 = test system: DU-145
NCI-H226 = test system: NCI-H226
COLO 205 = test system: COLO 205
HT-29 = test system: HT-29
HCT-116 = test system: HCT-116
OVCAR-5 = test system: OVCAR-5
UACC-62 = test system: UACC-62
MDA-MB-231 = test system: MDA-MB-231
PC-3 = test system: PC-3
SNB-19 = test system: SNB-19
Malme-3M = test system: Malme-3M
OVCAR-4 = test system: OVCAR-4
A498 = test system: A498
SF-268 = test system: SF-268
SK-MEL-2 = test system: SK-MEL-2
BT-549 = test system: BT-549
NCI-H522 = test system: NCI-H522
SK-MEL-28 = test system: SK-MEL-28
SN12C = test system: SN12C
MDA-MB-435 = test system: MDA-MB-435
K562 = test system: K562
SF-295 = test system: SF-295
RPMI-8226 = test system: RPMI-8226
MCF7 = test system: MCF7
SK-OV-3 = test system: SK-OV-3
NCI-H23 = test system: NCI-H23
UO-31 = test system: UO-31
OVCAR-8 = test system: OVCAR-8
CAKI-1 = test system: CAKI-1
SW-620 = test system: SW-620
SR = test system: SR
A549 = test system: A549
U-251 = test system: U-251
KM12 = test system: KM12
EKVX = test system: EKVX
LOX IMVI = test system: LOX IMVI
OVCAR-3 = test system: OVCAR-3
Hs-578T = test system: Hs-578T
HOP-92 = test system: HOP-92
HL-60 = test system: HL-60
NCI-H460 = test system: NCI-H460
SNB-75 = test system: SNB-75
HCC 2998 = test system: HCC 2998
RXF 393 = test system: RXF 393

In the case of `CN(C(=O)Cc1ccc(Cl)c(Cl)c1)[C@H]1CCCC[C@@H]1[N+]1(C)CCCC1`, the GI50 (TK-10) is reported as > 100 µM (inactive), the GI50 (CCRF-CEM) is reported as 3.37 µM (inactive) and the GI50 (IGROV-1) is reported as > 100 µM (inactive). The GI50 (MDA-N) was > 100 µM (inactive), the GI50 (786-0) was > 100 µM (inactive) and the GI50 (SF-539) was > 100 µM (inactive). For the same compound, the GI50 (HOP-62) was > 100 µM (inactive), the GI50 (M14) was > 100 µM (inactive) and the GI50 (HCT-15) was over 100 µM. The GI50 (ACHN) was > 100 µM (inactive), the GI50 (T47D) was > 100 µM (inactive) and the GI50 (UACC-257) was > 100 µM (inactive). The GI50 (SK-MEL-5) was 71.6 µM (inactive), the GI50 (NCI/ADR-RES) was > 100 µM (inactive) and the GI50 (MOLT-4) was > 100 µM (inactive). The GI50 (DU-145) was > 100 µM (inactive), the GI50 (NCI-H226) was > 100 µM (inactive) and the GI50 (COLO 205) was > 100 µM (inactive). The GI50 (HT-29) was > 100 µM (inactive), the GI50 (HCT-116) was > 100 µM (inactive) and the GI50 (OVCAR-5) was > 100 µM (inactive). The GI50 (UACC-62) was > 100 µM (inactive), the GI50 (MDA-MB-231) was > 100 µM (inactive) and the GI50 (PC-3) was > 100 µM (inactive). The GI50 (SNB-19) was > 100 µM (inactive), the GI50 (Malme-3M) was > 100 µM (inactive) and the GI50 (OVCAR-4) was > 100 µM (inactive). For the same compound, the GI50 (A498) was > 100 µM (inactive), the GI50 (SF-268) was > 100 µM (inactive) and the GI50 (SK-MEL-2) was > 100 µM (inactive). For the same compound, the GI50 (BT-549) was > 100 µM (inactive), the GI50 (NCI-H522) was > 100 µM (inactive) and the GI50 (SK-MEL-28) was > 100 µM (inactive). The GI50 (SN12C) was > 100 µM (inactive), the GI50 (MDA-MB-435) was > 100 µM (inactive) and the GI50 (K562) was > 100 µM (inactive). For the same compound, the GI50 (SF-295) was > 100 µM (inactive), the GI50 (RPMI-8226) was > 100 µM (inactive) and the GI50 (MCF7) was > 100 µM (inactive). The GI50 (SK-OV-3) was > 100 µM (inactive), the GI50 (NCI-H23) was > 100 µM (inactive) and the GI50 (UO-31) was > 100 µM (inactive). The GI50 (OVCAR-8) was > 100 µM (inactive), the GI50 (CAKI-1) was > 100 µM (inactive) and the GI50 (SW-620) was > 100 µM (inactive). The GI50 (SR) was > 100 µM (inactive), the GI50 (A549) was > 100 µM (inactive) and the GI50 (U-251) was > 100 µM (inactive). The GI50 (KM12) was > 100 µM (inactive), the GI50 (EKVX) was > 100 µM (inactive) and the GI50 (LOX IMVI) was > 100 µM (inactive). For the same compound, the GI50 (OVCAR-3) was > 100 µM (inactive) and the GI50 (Hs-578T) was > 100 µM (inactive).
With `COC(=O)[C@@]12CN(C)[C@@H](C(C)(C)C)N1C(=O)OC2c1ccccc1` (some centres undefined) the GI50 (TK-10) was > 100 µM (inactive), the GI50 (CCRF-CEM) was > 100 µM (inactive) and the GI50 (IGROV-1) was > 100 µM (inactive). The GI50 (MDA-N) was > 100 µM (inactive), the GI50 (786-0) was > 100 µM (inactive) and the GI50 (SF-539) was > 100 µM (inactive). The GI50 (HOP-62) was > 100 µM (inactive), the GI50 (M14) was > 100 µM (inactive) and the GI50 (HCT-15) was over 100 µM. The GI50 (ACHN) was > 100 µM (inactive), the GI50 (T47D) was > 100 µM (inactive) and the GI50 (UACC-257) was > 100 µM (inactive). The GI50 (SK-MEL-5) was > 100 µM (inactive), the GI50 (NCI/ADR-RES) was > 100 µM (inactive) and the GI50 (MOLT-4) was > 100 µM (inactive). The GI50 (DU-145) was > 100 µM (inactive), the GI50 (NCI-H226) was > 100 µM (inactive) and the GI50 (COLO 205) was > 100 µM (inactive). The GI50 (HOP-92) was > 100 µM (inactive), the GI50 (HT-29) was > 100 µM (inactive) and the GI50 (OVCAR-5) was > 100 µM (inactive). The GI50 (UACC-62) was > 100 µM (inactive), the GI50 (MDA-MB-231) was > 100 µM (inactive) and the GI50 (PC-3) was > 100 µM (inactive). The GI50 (SNB-19) was > 100 µM (inactive), the GI50 (Malme-3M) was > 100 µM (inactive) and the GI50 (OVCAR-4) was > 100 µM (inactive). For the same compound, the GI50 (SF-268) was > 100 µM (inactive), the GI50 (BT-549) was > 100 µM (inactive) and the GI50 (NCI-H522) was > 100 µM (inactive). The GI50 (SK-MEL-28) was > 100 µM (inactive), the GI50 (SN12C) was > 100 µM (inactive) and the GI50 (MDA-MB-435) was > 100 µM (inactive). The GI50 (HL-60) was > 100 µM (inactive), the GI50 (K562) was > 100 µM (inactive) and the GI50 (SF-295) was > 100 µM (inactive). The GI50 (RPMI-8226) was > 100 µM (inactive), the GI50 (MCF7) was > 100 µM (inactive) and the GI50 (NCI-H460) was > 100 µM (inactive). The GI50 (SK-OV-3) was > 100 µM (inactive), the GI50 (NCI-H23) was > 100 µM (inactive) and the GI50 (UO-31) was > 100 µM (inactive). The GI50 (SNB-75) was > 100 µM (inactive), the GI50 (OVCAR-8) was > 100 µM (inactive) and the GI50 (CAKI-1) was > 100 µM (inactive). For the same compound, the GI50 (HCC 2998) was > 100 µM (inactive), the GI50 (SW-620) was > 100 µM (inactive) and the GI50 (SR) was > 100 µM (inactive). The GI50 (RXF 393) was > 100 µM (inactive), the GI50 (A549) was > 100 µM (inactive) and the GI50 (U-251) was > 100 µM (inactive). For the same compound, the GI50 (KM12) was > 100 µM (inactive), the GI50 (EKVX) was > 100 µM (inactive) and the GI50 (LOX IMVI) was > 100 µM (inactive). For the same compound, the GI50 (OVCAR-3) was > 100 µM (inactive) and the GI50 (Hs-578T) was > 100 µM (inactive).
